The supplement of paper PMC4862054

Assays:
Conditions in all cases: incubation time: 72 h
[1] = test system: BT-474; assay: normalised viability (% of control), CellTiter-Blue; higher = more viable cells (about 100 = DMSO control)
Summary of the method: (§1)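 After 72 h on compound-loaded 384-well plates, breast cancer cell lines received 2.5 µl CellTiter-Blue reagent for 2 h at 37 °C. Fluorescence at 560/590 nm was scaled per plate so that vehicle was 100 and a positive kill control was 0. The value stands for normalised viability at a single listed concentration of the series.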

[2] = test system: BT-549; assay: as above
Summary of the method: as §1

[3] = test system: CAL-120; assay: as above
Summary of the method: as §1

[4] = test system: CAL-148; assay: as above
Summary of the method: as §1

[5] = test system: CAL-51; assay: as above
Summary of the method: as §1

[6] = test system: CAL-85-1; assay: as above
Summary of the method: as §1

[7] = test system: DU-4475; assay: as above
Summary of the method: as §1

[8] = test system: HCC1143; assay: as above
Summary of the method: as §1

[9] = test system: HCC1599; assay: as above
Summary of the method: as §1

[10] = test system: HCC1937; assay: as above
Summary of the method: as §1

[11] = test system: HDQ-P1; assay: as above
Summary of the method: as §1

[12] = test system: Hs578T; assay: as above
Summary of the method: as §1

[13] = test system: MDA-MB-231; assay: as above
Summary of the method: as §1

[14] = test system: MDA-MB-436; assay: as above
Summary of the method: as §1

[15] = test system: MDA-MB-453; assay: as above
Summary of the method: as §1

[16] = test system: MDA-MB-468; assay: as above
Summary of the method: as §1

[17] = test system: MFM-223; assay: as above
Summary of the method: as §1

[18] = test system: SK-BR-3; assay: as above
Summary of the method: as §1

[19] = test system: BT-474; assay: normalised viability (% of control), CellTiter-Blue; higher = more viable cells (100 = DMSO, 0 = benzethonium chloride kill control)
Procedure: (§2)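 DSRT, CellTiter-Blue viability, 72 h incubation. Signal is normalised to DMSO and benzethonium chloride controls. Value is the normalised response at dose 1.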

[20] = test system: CAL-85-1; assay: as above
Procedure: as §2

[21] = test system: CAL-148; assay: drug sensitivity score (DSS), CellTiter-Blue viability (DSS (AUC-based score)); higher = stronger viability inhibition; extreme values may be limits of the assay
Summary of the method: (§3)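 The drug sensitivity score was derived from the area under a fitted dose-response curve. To obtain the curves, breast cancer cells (20 µl suspension) were plated into 384-well plates with compound at 5 or 9 concentrations and kept for 72 h. Viability was measured by CellTiter-Blue fluorescence at 560/590 nm, with each plate normalised to 0.1 % DMSO and a positive kill control.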

[22] = test system: MDA-MB-468; assay: as above
Summary of the method: as §3

COc1cc2c(Oc3ccc4[nH]c(C)cc4c3F)ncnc2cc1OCCCN1CCCC1 [Cediranib]
Conditions	normalised viability [%]
[1], 1 nM	109
[1], 100 nM	101
[1], 1000 nM	91.1
[2], 1 nM	108
[2], 100 nM	104
[2], 1000 nM	70.8
[3], 1 nM	117
[3], 100 nM	110
[3], 1000 nM	81.4
[4], 0.3 nM	103
[4], 3 nM	92.8
[4], 10 nM	107
[5], 0.3 nM	90.5
[5], 3 nM	88.7
[5], 10 nM	88.6
[6], 0.3 nM	104
[6], 3 nM	96.5
[6], 10 nM	99.8
[7], 0.3 nM	103
[7], 3 nM	80.4
[7], 10 nM	87.3
[8], 1 nM	128
[8], 100 nM	120
[8], 1000 nM	112
[9], 1 nM	101
[9], 100 nM	114
[9], 1000 nM	76.7
[10], 1 nM	66.2
[10], 100 nM	78.5
[10], 1000 nM	83.4
[11], 0.3 nM	84.8
[11], 3 nM	90.6
[11], 10 nM	100
[12], 1 nM	110
[12], 100 nM	106
[12], 1000 nM	92.2
[13], 1 nM	84.7
[13], 100 nM	83.7
[13], 1000 nM	92
[14], 1 nM	85.6
[14], 100 nM	92
[14], 1000 nM	91.8
[15], 0.3 nM	85.7
[15], 3 nM	97
[15], 10 nM	84.7
[16], 1 nM	92.5
[16], 100 nM	89.7
[16], 1000 nM	95.2
[17], 1 nM	99.9
[17], 100 nM	87
[17], 1000 nM	47.2
[18], 1 nM	100
[18], 100 nM	95.7
[18], 1000 nM	104
[19], 0.1 nM	87.8
[20], 0.1 nM	107

Conditions	drug sensitivity score
[21]	0
[22]	0

Cc1ccc(-c2cc(C(F)(F)F)nn2-c2ccc(S(N)(=O)=O)cc2)cc1 [Celecoxib]
Conditions	normalised viability [%]
[1], 10 nM	111
[1], 1000 nM	97.3
[1], 10000 nM	105
[2], 10 nM	86.6
[2], 1000 nM	106
[2], 10000 nM	78.4
[3], 10 nM	94.5
[3], 1000 nM	79.7
[3], 10000 nM	81.9
[4], 3 nM	86.8
[4], 30 nM	97
[4], 100 nM	91.2
[5], 3 nM	99
[5], 30 nM	98.3
[5], 100 nM	94.4
[6], 3 nM	91.6
[6], 30 nM	75
[6], 100 nM	76.7
[7], 3 nM	83.8
[7], 30 nM	93.1
[7], 100 nM	106
[8], 10 nM	90.3
[8], 1000 nM	95.5
[8], 10000 nM	86
[9], 10 nM	99
[9], 1000 nM	95.7
[9], 10000 nM	65.6
[10], 10 nM	85.3
[10], 1000 nM	80.3
[10], 10000 nM	79.4
[11], 3 nM	104
[11], 30 nM	93.5
[11], 100 nM	85
[12], 10 nM	113
[12], 1000 nM	108
[12], 10000 nM	92.6
[13], 10 nM	96.2
[13], 1000 nM	86.7
[13], 10000 nM	99.6
[14], 10 nM	99.3
[14], 1000 nM	77.8
[14], 10000 nM	80.1
[15], 3 nM	111
[15], 30 nM	97.5
[15], 100 nM	103
[16], 10 nM	96.6
[16], 1000 nM	107
[16], 10000 nM	95
[17], 10 nM	95.9
[17], 1000 nM	92.1
[17], 10000 nM	86.3
[18], 10 nM	87.6
[18], 1000 nM	90.2
[18], 10000 nM	79.7
[19], 1 nM	76.1
[20], 1 nM	86.8

Conditions	drug sensitivity score
[21]	0
[22]	0
